Patent US12384767B2, “Probe for detection of cathepsin activity” (University of Florida Research Foundation, Incorporated, priority 2020, dated 2025)
Where two headings read alike, the source gives them in different places. Residues, ends and D or L forms follow the SMILES beside them. *: point of attachment. AMC = Cc1cc(=O)oc2cc(N*)ccc12; Cbz = O=C(OCc1ccccc1)*

Legend:
[1] = Background emission intensity of probes in buffer without enzyme; type: physicochemical; conditions: for emission intensity (background): stocks of equal absorbance at 330 nm, quadruplicate
Protocol: This is attributed to the lower emission intensity observed in CTLAP in buffer without enzyme; the measured emission intensity of the compound at 5 μM is consistently 6- to 8-fold lower than that of sc-3136 (FIG. 6). As low background signal can improve the sensitivity and detection limit of fluorogenic assays, we sought to identify the cause of the low background intensity of CTLAP. We first examined the spectral and photophysical properties of the compound to confirm that this low background intensity was not an artifact of experimental methods.
We next tested hypothesis (2), that the emission intensity measured for CTLAP or sc-3136 was somehow compromised by the experimental conditions or by the structural differences of the compounds.
To duplicate unexpected absorbances from 4-131, stocks of probes from 4-128 used to create true 50 uM stocks. UV absorbance at 330 nm measured in a 96-well plate, then 150 uL transferred to an opaque-bottom plate and emission intensity (350/445 nm) was measured. Experiments run in quadruplicate, with a buffer blank. Measured on a BioTek Synergy H1.
50 uL of these solutions were diluted with 150 uL cathepsin L reaction buffer (pH 5.0) to give solutions of 5 uM compound in 25% DMSO/buffer. These samples were used to measure UV-Vis spectra (250-400 nm) on a Shimadzu UV-2700. A blank solution of 25% DMSO/buffer was used to baseline the instrument. Between samples, the cuvette was flushed with 200 uL DMSO, drained, and the next sample was added.
The remaining 150 uL of solution was diluted with 450 uL buffer to give 600 uL of 5 uM compound in 25% DMSO/buffer. The solution was transferred to an opaque-bottom 96-well plate, in three aliquots of 200 uL. The plate was used to measure emission and excitation spectra, and quantitative endpoint emission intensities. All spectral scans were collected at 50 Gain, in 5 nm steps.

[2] = target: T1, CTL (Recombinant human Cathepsin L) (Homo sapiens, UniProt P07711); test: Probe activation by CTL, turn-on ratio and selectivity; type: biochemical
T1 construct: purchased Abcam ab174030
T1 sequence (P07711 114-333): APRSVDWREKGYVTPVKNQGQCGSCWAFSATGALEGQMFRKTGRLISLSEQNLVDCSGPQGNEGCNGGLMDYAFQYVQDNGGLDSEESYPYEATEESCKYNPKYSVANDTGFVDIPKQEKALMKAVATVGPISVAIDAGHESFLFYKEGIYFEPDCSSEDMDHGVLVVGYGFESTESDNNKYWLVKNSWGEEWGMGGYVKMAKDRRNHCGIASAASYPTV
Protocol: (§1) CTV and CTB appear to remain within the initial velocity region of the curves during this time, with a markedly lower slope than that observed for CTL initially.
To determine the relative selectivity of either probe for CTL, we examined the turn-on ratio (TOR) of the probes in response to each enzyme over the first hour of incubation by dividing the emission intensity at each time point by the average intensity of the probe in buffer without enzyme (FIG. 4).
(§2) • 1. Recombinant human Cathepsin L/MEP protein (Active) • a. Product ab174030; Lot No. (Conc.) GR3210572-1 (N/A) Sino Biological • 1. Human Cathepsin B/CTSB Protein (His Tag) • a. Cat. No. 10483-H08H • 2. Human Cathepsin V/Cathepsin L2/Preproprotein Protein (His Tag) • a. Cat. No. 10093-H08H • 3. Human Cathepsin S/CTSS Protein (His Tag) • a. Cat. No. 10487-H08H Santa Cruz Biotechnology, Inc. • 1. […] Enzyme storage and preparation:
Enzyme stocks (2.5 uM) were thawed and diluted to 100 nM with cathepsin storage buffer (pH 5.5). From calibrated probe stocks were created 50 uM working stocks in DMSO (3-157 accidentally prepared to 62.5 uM instead). In a 96-well plate, solutions of cathepsin reaction buffer (either pH 5.0 or 6.5), enzyme (5 nM), and probe (5 uM) were prepared. Probe added last to the reaction wells, then read in Synergy H1 plate reader immediately (˜5 min) for emission intensity at 350-445 nm. The plate was read at various time points, then stored in fridge overnight but not quenched. The pH 5.0 plate was read again after 48 h to capture completed reaction stage, and to collect emission spectra at 350 nm excitation for both caged and activated compound wells. […]
(§3) Cathepsins reconstituted as usual and diluted into cathepsin reaction buffers (pH 5.0 or 6.5) in an opaque-bottom 96-well plate. Probes added quickly to each active well, then emission measured immediately on BioTek Synergy H1 plate reader, collecting consecutive 36 sec runs over the first 15 min of reaction time. […]

[3] = target: T1, CTL (Recombinant human Cathepsin L); test: HPLC analysis of probe processing by CTL; type: biochemical; conditions: incubated with CTL in buffer at pH 5.0
Protocol: To confirm recognition of CTLAP by CTL, the probe was incubated with CTL in buffer at pH 5.0, and the probe was examined by HPLC analysis (FIG. 2). The compound alone in buffer retained maximum absorption at 330 nm.
[4-105] Cathepsin L reconstituted as per manufacturer's instructions, then diluted in a preliminary cathepsin storage buffer, in line with a literature procedure^16 (100 mM NaOAc/MaOH, 100 mM NaCl, 10 mM DTT, 1 mM EDTA, pH 5.5). Frozen in −80° C. freezer, and a portion removed and diluted in more cathepsin storage buffer to create 100 nM stock.
In opaque-bottom […], buffer (unfiltered) plated, then probes added, then enzyme added. Final solution in each well was 5 uM probe, 5 nM CTL, 10% DMSO/NaOAc buffer. Incubated at 37° C., removed at 10 min, 30 min, 1 h, and 4 h for measurement on plate reader (Synergy H1). […] Stored in tin foil at rt for 2 days, then stored in fridge.
To observe probe conversion, a well was diluted with DI water and injected into HPLC. […] The UV absorption traces of the new product(s) matched that of AMC.

[4] = Molar attenuation coefficient and quantum yield; type: physicochemical; conditions: for ε × 10^−3 (molar attenuation coefficient): absorption at 350 nm, standardized against 4-methylumbelliferone (MU); for ϕF (quantum yield): excitation 350 nm, emission 380-600 nm, standardized against MU
Protocol: To determine quantum yields, standard curves of CTLAP and sc-3136 were constructed between 0-10 μM in buffer, and the absorbance and total emission was measured. Values for the molar attenuation coefficient and quantum yield were standardized using measured absorption and emission intensity of 4-methylumbelliferone (MU) and its literature quantum yield and molar attenuation coefficient^14. Absorption of the solutions at 350 nm was measured, and all three compounds reported good (R^2>0.96) linear fit with increasing concentration (FIG. 10A). To measure total emission intensity, the emission spectrum of each compound was collected between 380-600 nm at an excitation wavelength of 350 nm; the area under the emission curve was calculated and graphed as a function of absorption value at 350 nm for each sample (FIG. 10B).
Compounds were compared to 4-methylumbelliferone (4-MU) and 2,4-difluoro-4-methylumbelliferone (DiFMU).
To construct calibration curves, stock solutions of 4-MU and DiFMU were prepared at ˜1 mM, then diluted with buffer (carbonate buffer, pH 10) to 50 uM. From these solutions, standard curves were constructed at 50, 25, 10, 5, and 1 uM by dilution with carbonate buffer, pH 10.1. Solutions were plated in 96-well plates. Absorbance at 350 nm was measured, and the fluorescence curve at 350 nm excitation and 380-600 nm was measured. The absorbance at 350 nm was graphed against the area under the curve (AUC) of the fluorescence spectrum from 380-600 nm, and the slope of each line was used to calculate the quantum yield according to the equation: […]

[5] = target: CTB (Human Cathepsin B/CTSB Protein) (Homo sapiens, UniProt P07858); test: Time-course cathepsin assay, CTB signal normalized to CTL; type: biochemical; conditions: 5 uM probe, 5 nM enzyme, lowest competing signal over time course
Excerpt: as §1
(§4) The kinetic assays were repeated at pH 5.0 (FIG. 3C, D), and overall the same trends were observed as at pH 6.5. One notable difference is the altered reaction slope of CTL at this pH, which appears to have less of a plateau and instead seems to shift to a second phase of constant, yet slower, velocity. […] This improved activity of CTB at low pH is consistent with previous observations that CTB's unique carboxypeptidase activity is dependent on an acidic environment, and that this activity is disengaged at neutral pH^13.
(§5) To estimate relative selectivity of the compounds for CTL over the other enzymes, the intensity at each time point for CTB, CTV, or CTS, was divided by the intensity of CTL at the same time point; this normalizes CTL-generated signal intensity to 1.0, and expresses the relative signal generated by the other enzymes (FIG. 5). These graphs indicate that off-target signal is least prominent within the first 10 min of incubation, as the faster kinetics of the probes to CTL generate more contrast at these earlier time points. To quantify the selectivity of CTLAP and sc-3136, the lowest interfering signal from each enzyme was identified and tabulated in Table 1. Also identified was the assay time at which the total competing signal (sum of CTB, CTV, and CTS) was lowest, and the relative intensity of all competing enzymes at that time point. […] The optimum results are achieved within 10 min incubation time, lending strength to the application of CTLAP for rapid detection of CTL, even in the presence of competing enzymes.
as §2
(§6) Cathepsins reconstituted as usual and diluted into cathepsin reaction buffers (pH 5.0 or 6.5) in an opaque-bottom 96-well plate. Probes added quickly to each active well, then emission measured immediately on BioTek Synergy H1 plate reader, collecting consecutive 36 sec runs over the first 15 min of reaction time. Final probe concentration was 5 uM and final enzyme concentration was 5 nM.

[6] = target: T2, CTV (Human Cathepsin V/Cathepsin L2) (Homo sapiens, UniProt O60911); test: Time-course cathepsin assay, CTV signal normalized to CTL; type: biochemical; conditions: 5 uM probe, 5 nM enzyme, lowest competing signal over time course
T2 construct: His; purchased Sino Biological 10093-H08H
T2 sequence (O60911 114-334): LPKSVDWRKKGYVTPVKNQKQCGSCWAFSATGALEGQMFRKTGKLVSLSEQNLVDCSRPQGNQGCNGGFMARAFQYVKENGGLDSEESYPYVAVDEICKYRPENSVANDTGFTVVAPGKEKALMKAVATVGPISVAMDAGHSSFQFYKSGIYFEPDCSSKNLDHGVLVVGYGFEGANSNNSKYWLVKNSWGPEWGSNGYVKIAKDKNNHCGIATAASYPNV
Excerpt: as §1, §4, §5, §2, §6

CTB, CTV, and CTS = test: Time-course cathepsin assay, total competing signal (sum of CTB, CTV, and CTS) normalized to CTL; type: biochemical, human; conditions: 5 uM probe, 5 nM enzyme
Excerpt: as §1, §4, §5
Table 1. Signal generated by CTB, CTV, and CTS, or all three enzymes together, relative to CTL signal at that time point. The lowest competing signal over the time course in FIG. 5 was selected for each individual enzyme, as well as for the sum of signals from all three enzymes. The time point at which the sum of all competing signals is lowest is also listed.
• 1. Recombinant human Cathepsin L/MEP protein (Active) • a. Product ab174030; Lot No. (Conc.) GR3210572-1 (N/A) Sino Biological • 1. Human Cathepsin B/CTSB Protein (His Tag) • a. Cat. No. 10483-H08H • 2. Human Cathepsin V/Cathepsin L2/Preproprotein Protein (His Tag) • a. Cat. No. 10093-H08H • 3. Human Cathepsin S/CTSS Protein (His Tag) • a. Cat. No. 10487-H08H Santa Cruz Biotechnology, Inc. • 1. […]
as §3

[7] = target: T3, CTS (Human Cathepsin S/CTSS Protein) (Homo sapiens, UniProt P25774); test: Time-course cathepsin assay, CTS signal normalized to CTL; type: biochemical; conditions: 5 uM probe, 5 nM enzyme, lowest competing signal over time course
T3 construct: His; purchased Sino Biological 10487-H08H
T3 sequence (P25774 115-331): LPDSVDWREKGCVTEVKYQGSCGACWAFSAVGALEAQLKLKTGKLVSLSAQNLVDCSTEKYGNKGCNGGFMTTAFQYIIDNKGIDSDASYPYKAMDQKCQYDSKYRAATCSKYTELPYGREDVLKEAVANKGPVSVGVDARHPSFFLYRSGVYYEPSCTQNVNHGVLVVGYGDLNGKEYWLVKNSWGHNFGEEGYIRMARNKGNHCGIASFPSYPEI
Excerpt: as §1, §4, §5, §2, §6

[8] = standard, literature value; cited from earlier work

Structure (SMILES) | emission intensity (background) ([1]; 350/445 nm) | ε × 10^−3 (molar attenuation coefficient) [4] | ϕF (quantum yield) [4] | Optimal (lowest) CTB signal normalized to CTL ([5]; pH 5.0) | Optimal (lowest) CTB signal normalized to CTL ([5]; pH 6.5) | Optimal (lowest) CTV signal normalized to CTL ([6]; pH 5.0) | Optimal (lowest) CTV signal normalized to CTL ([6]; pH 6.5) | Lowest sum of signals from all three enzymes (B + V + S) normalized to CTL (CTB, CTV, and CTS; pH 5.0) | Lowest sum of signals from all three enzymes (B + V + S) normalized to CTL (CTB, CTV, and CTS; pH 6.5) | Optimal (lowest) CTS signal normalized to CTL ([7]; pH 5.0) | Optimal (lowest) CTS signal normalized to CTL ([7]; pH 6.5) | further results
Cc1cc(=O)oc2cc(NC(=O)C(CCCCN)NC(=O)C(Cc3ccc(-c4cccs4)cc3)NC(=O)OCc3ccccc3)ccc12 (centres unmarked) [CTLAP] | 6.1e3 rfu | 11.0 | 0.02 | 15% | 6% | 10% | 15% | 31% | 25% | 1% | 1% | emission intensity in buffer without enzyme, fold lower than sc-3136 ([1]; compound at 5 μM, 350 nm excitation, 445 nm emission): 6- to 8 fold; selectivity for CTL over other cathepsins [2]: 6- to 10 fold; turn-on ratio (TOR) relative to that of sc-3136 ([2]; after 1 h incubation): approximately 4 fold; increase in emission intensity ([2]; within 10 min of incubation with CTL): 24 fold; conversion of probe to free AMC peak (HPLC) [3]: full conversion
Cc1cc(=O)oc2cc(NC(=O)C(CCCN=C(N)N)NC(=O)C(Cc3ccccc3)NC(=O)OCc3ccccc3)ccc12 (stereo not drawn) [sc-3136, Z-FR-AMC] (Cbz-Phe-Arg-{AMC}; configuration not given here) | 4.8e4 rfu | 7.5 | 0.32 | 16% | 21% | 14% | 16% | 39% | 46% | 7% | 7% | ratio of background intensity for sc-3136 over 3-157 ([1]; 350/445 nm): 7.8 ×; emission intensity ratio between sc-3136 and CTLAP ([1]; excitation at 330 nm): 6.9 fold; emission intensity ratio between sc-3136 and CTLAP ([1]; excitation at 350 nm): 6.3 fold
Cc1cc(=O)oc2cc(O)ccc12 [MU, 4-methylumbelliferone] | – | – | – | – | – | – | – | – | – | – | – | ε × 10^−3 (molar attenuation coefficient) [8]: 19.3; ϕF (quantum yield) [8]: 0.63
